Test results: patent US9499476B2, “Acetamide stereoisomer” (SUNOVION PHARMACEUTICALS INC., priority 2007, dated 2016)
Marks after values point to notes of the source that are not given here.

Assays:
[1] = target: T1, human recombinant β1 receptors (Homo sapiens, UniProt P08588); test: β1 radioligand binding assay
T1 construct: expressed in transfected cells; host or cells: CHO cells

[2] = target: T2, human recombinant β2 receptors (Homo sapiens, UniProt P07550); test: β2 radioligand binding assay
T2 sequence (P07550 whole entry): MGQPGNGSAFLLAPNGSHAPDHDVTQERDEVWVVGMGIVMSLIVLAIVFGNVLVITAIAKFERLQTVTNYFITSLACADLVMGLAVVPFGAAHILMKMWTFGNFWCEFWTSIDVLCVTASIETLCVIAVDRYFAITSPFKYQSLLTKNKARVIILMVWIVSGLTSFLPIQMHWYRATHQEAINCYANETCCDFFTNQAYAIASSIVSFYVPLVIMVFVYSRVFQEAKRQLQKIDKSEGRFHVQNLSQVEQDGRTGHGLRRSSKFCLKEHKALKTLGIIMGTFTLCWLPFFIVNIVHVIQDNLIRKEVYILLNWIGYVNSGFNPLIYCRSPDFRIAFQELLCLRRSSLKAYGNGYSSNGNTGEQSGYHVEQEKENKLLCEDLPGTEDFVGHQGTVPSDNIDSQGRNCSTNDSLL

[3] = target: T2, human recombinant β2 receptors; test: Intrinsic activity assessment (β2), cAMP production in CHO cells; assay type: cell-based; details: relative to procaterol, read-out: intrinsic activity (% response relative to procaterol-induced cAMP increase)
[4] = target: adrenergic β1 receptors (Cavia porcellus, UniProt H0W3H1); test: β1 adrenergic functional activity, positive chronotropic effect in isolated right atria; set-up: species or system Dunkin Hartley Guinea pigs; details: read-out: increase in heart rate, β1 functional assay
Chain of adrenergic β1 receptors (H0W3H1 1-470): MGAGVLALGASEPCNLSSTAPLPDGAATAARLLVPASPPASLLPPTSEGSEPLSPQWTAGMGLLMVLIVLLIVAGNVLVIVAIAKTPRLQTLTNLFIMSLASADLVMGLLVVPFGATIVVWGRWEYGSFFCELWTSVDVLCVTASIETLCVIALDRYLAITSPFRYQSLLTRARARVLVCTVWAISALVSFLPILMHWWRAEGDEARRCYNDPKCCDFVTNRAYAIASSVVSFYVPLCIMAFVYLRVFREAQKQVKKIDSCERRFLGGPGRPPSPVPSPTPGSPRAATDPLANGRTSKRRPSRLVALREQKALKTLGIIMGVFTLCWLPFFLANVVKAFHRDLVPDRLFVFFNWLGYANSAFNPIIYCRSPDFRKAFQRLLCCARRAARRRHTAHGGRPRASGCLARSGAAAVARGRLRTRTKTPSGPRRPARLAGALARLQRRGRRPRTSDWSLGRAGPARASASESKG
Description: β1 and β2 Adrenergic Activity (Functional)
The concentration that gives 50% maximal effect is the EC50.

[5] = target: T3, adrenergic β2 receptors (Cavia porcellus, UniProt Q8K4Z4); test: β2 adrenergic functional activity, relaxation of spontaneous tone of isolated trachea; set-up: species or system Dunkin Hartley Guinea pigs
T3 construct: from tissue; host or cells: isolated trachea, Dunkin Hartley guinea pig
T3 sequence (Q8K4Z4 whole entry): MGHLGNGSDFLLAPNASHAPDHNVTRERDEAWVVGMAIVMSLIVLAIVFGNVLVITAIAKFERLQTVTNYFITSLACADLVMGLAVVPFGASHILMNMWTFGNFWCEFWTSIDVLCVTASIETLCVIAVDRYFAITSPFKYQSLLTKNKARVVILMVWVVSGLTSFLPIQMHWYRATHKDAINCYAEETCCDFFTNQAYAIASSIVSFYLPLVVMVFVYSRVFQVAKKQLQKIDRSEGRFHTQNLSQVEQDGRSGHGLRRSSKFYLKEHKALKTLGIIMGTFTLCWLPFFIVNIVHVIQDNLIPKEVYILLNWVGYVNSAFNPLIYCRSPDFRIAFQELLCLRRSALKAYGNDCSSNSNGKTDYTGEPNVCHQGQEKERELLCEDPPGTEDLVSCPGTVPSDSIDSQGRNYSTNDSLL

[6] = Stability in aqueous buffered solutions (HPLC assay); assay type: physicochemical
Description: Stability in Aqueous Buffered Solutions
Solution Preparations: For each test compound, the following solutions are prepared.
• Solution A is prepared from ˜30 mg of the test compound in 150 mL of 0.005 M citrate buffer, pH 5.0 (˜0.2 mg/mL). • Solution B is prepared as follows: approximately 30 mL aliquot of Solution A is transferred to a separated container and the pH of the solution is adjusted to pH 3.0 with 1 N HCl (˜0.2 mL). • Solution C is prepared as follows: approximately 30 mL aliquot of Solution A is transferred to a separated container and the pH of the solution is adjusted to pH ˜8.0 with 1 N NaOH (˜0.2 mL). • Note: Because the volume of 1 N HCl or 1 N NaOH used for adjusting pH was negligible, the concentration of test compound in Solutions A, B and C were the same.
Storage Scheme • As soon as the above solutions were prepared, aliquots of each solution were transferred into 11 vials, of which 9 vials are stored at −20° C., and one each is stored at 30° C. and 40° C., respectively. • At each interval listed below, two vials are removed from −20° C. storage, and stored at 30° C. and 40° C., respectively. • The corresponding weeks under the storage condition (30° C. or 40° C.) are shown in the table below.
On Week 12, the last vial stored at −20° C. is removed and warmed up to the room temperature, which is the Day 0 Solution.
Sample Analysis: On Week 12, all solutions are assayed by an HPLC method using the Day 0 Solution at pH 5 as a standard solution. The test compounds were assayed by HPLC with UV detection (refer to Table 1 for method conditions).

T1 sequence (P08588 whole entry): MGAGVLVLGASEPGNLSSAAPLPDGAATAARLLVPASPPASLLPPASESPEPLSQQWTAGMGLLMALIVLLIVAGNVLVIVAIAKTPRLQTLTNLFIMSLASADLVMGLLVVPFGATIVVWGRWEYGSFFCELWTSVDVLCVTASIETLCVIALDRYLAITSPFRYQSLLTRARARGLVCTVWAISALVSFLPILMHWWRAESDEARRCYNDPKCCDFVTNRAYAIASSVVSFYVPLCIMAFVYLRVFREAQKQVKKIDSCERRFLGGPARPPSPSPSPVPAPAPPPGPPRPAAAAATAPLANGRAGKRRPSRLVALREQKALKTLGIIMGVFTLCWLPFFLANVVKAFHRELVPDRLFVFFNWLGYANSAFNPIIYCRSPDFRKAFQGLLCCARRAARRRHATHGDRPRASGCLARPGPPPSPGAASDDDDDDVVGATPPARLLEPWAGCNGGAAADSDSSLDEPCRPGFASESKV

CC(=O)Nc1cc([C@H](O)CN[C@H](C)Cc2ccc(O)cc2)ccc1O [Example 1, N-[2-hydroxy-5-[(1S)-1-hydroxy-2-[[(1R)-2-(4-hydroxyphenyl)-1-methylethyl]amino]ethyl]phenyl]acetamide]
inhibition at 20 µM ([1]; at a concentration of 20 μM, read-out: inhibition of specific binding, β1 receptor): 30% | Ki ([1]; displacement of [125I]-cyanopidolol, CHO cells, read-out: Ki for the β1 receptor): > 20000 nM | Ki ([2]; displacement of [3H]-CGP-12177, CHO cells, read-out: Ki for the β2 receptor): 2210 nM | β1/β2 binding ratio ([2]; ratio of β1 to β2 binding Ki): > 9 | Emax [3]: 71% | activation at 30 µM [4]: 32% | EC50 ([5]; isolated guinea pig trachea): 120 nM | β1/β2 functional ratio ([5]; ratio of β1 to β2 functional EC50): > 250 | % of Initial Concentration ([6]; pH 3.0, 30° C., 0 wk): 99.46% | % of Initial Concentration ([6]; pH 3.0, 30° C., 1 wk): 100.03% | % of Initial Concentration ([6]; pH 3.0, 30° C., 2 wk): 99.84% | % of Initial Concentration ([6]; pH 3.0, 30° C., 4 wk): 101.41% | % of Initial Concentration ([6]; pH 3.0, 30° C., 8 wk): 100.33% | % of Initial Concentration ([6]; pH 3.0, 30° C., 12 wk): 100.29% | % of Initial Concentration ([6]; pH 3.0, 40° C., 0 wk): 99.46% | % of Initial Concentration ([6]; pH 3.0, 40° C., 1 wk): 99.89% | % of Initial Concentration ([6]; pH 3.0, 40° C., 2 wk): 100.11% | % of Initial Concentration ([6]; pH 3.0, 40° C., 4 wk): 99.54% | % of Initial Concentration ([6]; pH 3.0, 40° C., 8 wk): 99.18% | % of Initial Concentration ([6]; pH 3.0, 40° C., 12 wk): 97.17% | time found to be very stable in aqueous solution ([6]; pH 3 or 5, stored at 30° C.): at least 12 weeks | % of Initial Concentration ([6]; pH 5.0, 30° C., 0 wk): 100.25% | % of Initial Concentration ([6]; pH 5.0, 30° C., 1 wk): 101.22% | % of Initial Concentration ([6]; pH 5.0, 30° C., 2 wk): 101.07% | % of Initial Concentration ([6]; pH 5.0, 30° C., 4 wk, flagged out of trend): 112.52* % | % of Initial Concentration ([6]; pH 5.0, 30° C., 8 wk): 107.12% | % of Initial Concentration ([6]; pH 5.0, 30° C., 12 wk): 107.75% | % of Initial Concentration ([6]; pH 5.0, 40° C., 0 wk): 100.25% | % of Initial Concentration ([6]; pH 5.0, 40° C., 1 wk): 102.00% | % of Initial Concentration ([6]; pH 5.0, 40° C., 2 wk): 102.73% | % of Initial Concentration ([6]; pH 5.0, 40° C., 4 wk): 102.94% | % of Initial Concentration ([6]; pH 5.0, 40° C., 8 wk, flagged out of trend): 122.32* % | % of Initial Concentration ([6]; pH 5.0, 40° C., 12 wk, flagged out of trend): 112.61* % | % of Initial Concentration ([6]; ~pH 8, 30° C., 0 wk): 100.38% | % of Initial Concentration ([6]; ~pH 8, 30° C., 1 wk): 99.64% | % of Initial Concentration ([6]; ~pH 8, 30° C., 2 wk): 99.60% | % of Initial Concentration ([6]; ~pH 8, 30° C., 4 wk): 96.62% | % of Initial Concentration ([6]; ~pH 8, 30° C., 8 wk, flagged out of trend): 26.79* % | % of Initial Concentration ([6]; ~pH 8, 30° C., 12 wk): 89.93% | % of Initial Concentration ([6]; ~pH 8, 40° C., 0 wk): 100.38% | % of Initial Concentration ([6]; ~pH 8, 40° C., 1 wk): 97.44% | % of Initial Concentration ([6]; ~pH 8, 40° C., 2 wk): 93.75% | % of Initial Concentration ([6]; ~pH 8, 40° C., 4 wk): 86.72% | % of Initial Concentration ([6]; ~pH 8, 40° C., 8 wk): 72.25% | % of Initial Concentration ([6]; ~pH 8, 40° C., 12 wk): 61.36% | melting point: 97 to 100 °C
